According to patent US9402908B2, “Polymeric delivery systems for active agents” (priority 2008, dated 2016):

Conditions: same protocol, no polymer

SMILES: C[C@@H]1[C@H](O)[C@@H](C)/C=C/C=C/C=C/C=C/C=C/C=C/C=C/[C@H](O[C@@H]2O[C@H](C)[C@@H](O)[C@H](N)[C@@H]2O)C[C@@H]2O[C@](O)(C[C@@H](O)C[C@@H](O)[C@H](O)CC[C@@H](O)C[C@@H](O)CC(=O)O[C@H]1C)C[C@H](O)[C@H]2C(=O)O [Amphotericin B]
- water solubility of Amphotericin B: approx. 0.4 μg/mL
